# “And” between values parts separate entries of the source, which are not always exact repeats. Equal values may be shown once.
# Experiment: Biodistribution study in male Wistar rats
# Type: in vivo, rat
# Conditions: for % ID/g × kg in Blood / % ID/g × kg in Cerebellum / % ID/g × kg in Cerebrum + Cerebellum / % ID/g × kg in Cerebrum total / % ID/g × kg in Cortex / % ID/g × kg in Heart / % ID/g × kg in Hippocampus / % ID/g × kg in Kidneys / % ID/g × kg in Liver / % ID/g × kg in Lungs / % ID/g × kg in Rest of cerebrum / % ID/g × kg in Spleen + Pancreas / % ID/g × kg in Striatum: normalized for body weight
# Experimental: (§1) The biodistribution study of [^18F]B-1 was carried out in male Wistar rats (body weight 250-350 g) at 2 min, 30 min and 60 min post injection (p.i.) (n=3/time point). Rats were injected with about 1.1 MBq of the tracer via tail vein under anesthesia (2.5% Isoflurane in O2 at 1 L/min flow rate) and sacrificed by decapitation at above specified time points. Blood and major organs were collected in tared tubes and weighed. The radioactivity in blood, organs and other body parts was measured using an automated gamma counter The distribution of radioactivity in different parts of the body at different time points p.i. of the tracer was calculated and expressed as percentage of injected dose (% ID), and as percentage of injected dose per gram tissue (% ID/g) for the selected organs. % ID is calculated as cpm in organ/total cpm recovered. For calculation of total radioactivity in blood, blood mass was assumed to be 7% of the body mass.
# as §1, with “[^18F]B-2” for “[^18F]B-1”, “270-340” for “250-350”
# [1] = 60 min p.i., % ID/g values normalized for the body weight
smiles,measurement,setting,value
[18F]CCCn1cc(-c2ccncc2)c(-c2ccc(OCc3ccc4ccccc4n3)cc2)n1 [[^18F]B-1],% ID/g × kg in Blood,30 min p.i.,0.03 ± 0.00 % ID/g × kg
same,% ID/g × kg in Cerebellum,30 min p.i.,0.023 ± 0.00 % ID/g × kg
same,% ID/g × kg in Cerebrum + Cerebellum,30 min p.i.,0.03 ± 0.00 % ID/g × kg
same,% ID/g × kg in Cerebrum total,30 min p.i.,0.032 ± 0.00 % ID/g × kg
same,% ID/g × kg in Cortex,30 min p.i.,0.027 ± 0.01 % ID/g × kg
same,% ID/g × kg in Heart,30 min p.i.,0.07 ± 0.00 % ID/g × kg
same,% ID/g × kg in Hippocampus,30 min p.i.,0.021 ± 0.00 % ID/g × kg
same,% ID/g × kg in Kidneys,30 min p.i.,0.16 ± 0.01 % ID/g × kg
same,% ID/g × kg in Liver,30 min p.i.,1.03 ± 0.08 % ID/g × kg
same,% ID/g × kg in Lungs,30 min p.i.,0.35 ± 0.03 % ID/g × kg
same,% ID/g × kg in Rest of cerebrum,30 min p.i.,0.030 ± 0.00 % ID/g × kg
same,% ID/g × kg in Spleen + Pancreas,30 min p.i.,0.07 ± 0.00 % ID/g × kg
same,% ID/g × kg in Striatum,30 min p.i.,0.106 ± 0.00 % ID/g × kg
same,% ID in Blood,60 min p.i.,1.9 % ID and 1.94 ± 0.1 % ID
same,% ID in Carcass,60 min p.i.,27.96 ± 0.7 % ID
same,% ID in Cerebellum,60 min p.i.,0.012 ± 0.00 % ID
same,% ID in Cerebrum total,60 min p.i.,0.101 ± 0.01 % ID
same,% ID in Cortex,60 min p.i.,0.012 ± 0.00 % ID
same,% ID in Heart,60 min p.i.,0.17 ± 0.0 % ID
same,% ID in Hippocampus,60 min p.i.,0.003 ± 0.00 % ID
same,% ID in Intestines,60 min p.i.,14.72 ± 4.1 % ID
same,% ID in Kidneys,60 min p.i.,1.45 ± 0.1 % ID
same,% ID in Liver,60 min p.i.,41.44 ± 1.5 % ID
same,% ID in Lungs,60 min p.i.,0.32 ± 0.0 % ID
same,% ID in Rest of cerebrum,60 min p.i.,0.071 ± 0.01 % ID
same,% ID in Spleen + Pancreas,60 min p.i.,0.31 ± 0.0 % ID
same,% ID in Stomach,60 min p.i.,10.00 ± 2.5 % ID
same,% ID in Striatum,60 min p.i.,0.015 ± 0.00 % ID
same,% ID in Urine,60 min p.i.,1.87 ± 0.2 % ID
same,% ID present in the liver and intestines in total,60 min p.i.,56 % ID
same,% ID present in the urinary system,60 min p.i.,~3.3 % ID
same,% ID/g in Blood,60 min p.i.,0.08 ± 0.00 % ID/g
same,% ID/g in Cerebellum,60 min p.i.,0.04 ± 0.00 % ID/g
same,% ID/g in Cerebrum + Cerebellum,60 min p.i.,0.07 ± 0.00 % ID/g
same,% ID/g in Cerebrum total,60 min p.i.,0.07 ± 0.00 % ID/g
same,% ID/g in Cortex,60 min p.i.,0.06 ± 0.00 % ID/g
same,% ID/g in Heart,60 min p.i.,0.16 ± 0.00 % ID/g
same,% ID/g in Hippocampus,60 min p.i.,0.05 ± 0.01 % ID/g
same,% ID/g in Kidneys,60 min p.i.,0.46 ± 0.02 % ID/g
same,% ID/g in Liver,60 min p.i.,3.11 ± 0.06 % ID/g
same,% ID/g in Lungs,60 min p.i.,0.20 ± 0.02 % ID/g
same,% ID/g in Rest of cerebrum,60 min p.i.,0.07 ± 0.00 % ID/g
same,% ID/g in Spleen + Pancreas,60 min p.i.,0.19 ± 0.01 % ID/g
same,striatum/blood ratio,[1],3.0
same,striatum/cerebellum ratio,[1],5.6
same,striatum/cortex ratio,[1],4.4
same,striatum/hippocampus ratio,[1],5.2
same,% ID/g × kg in Blood,60 min p.i.,0.03 ± 0.00 % ID/g × kg
same,% ID/g × kg in Cerebellum,60 min p.i.,0.015 ± 0.00 % ID/g × kg
same,% ID/g × kg in Cerebrum + Cerebellum,60 min p.i.,0.02 ± 0.00 % ID/g × kg
same,% ID/g × kg in Cerebrum total,60 min p.i.,0.024 ± 0.00 % ID/g × kg
same,% ID/g × kg in Cortex,60 min p.i.,0.019 ± 0.00 % ID/g × kg
same,% ID/g × kg in Heart,60 min p.i.,0.05 ± 0.00 % ID/g × kg
same,% ID/g × kg in Hippocampus,60 min p.i.,0.016 ± 0.00 % ID/g × kg
same,% ID/g × kg in Kidneys,60 min p.i.,0.16 ± 0.01 % ID/g × kg
same,% ID/g × kg in Liver,60 min p.i.,1.04 ± 0.02 % ID/g × kg
same,% ID/g × kg in Lungs,60 min p.i.,0.07 ± 0.01 % ID/g × kg
same,% ID/g × kg in Rest of cerebrum,60 min p.i.,0.022 ± 0.00 % ID/g × kg
same,% ID/g × kg in Spleen + Pancreas,60 min p.i.,0.06 ± 0.01 % ID/g × kg
same,% ID/g × kg in Striatum,60 min p.i.,0.083 ± 0.01 % ID/g × kg
same,"Clearance, 2 min/30 min ratio for % ID/g values",Blood,1.60
same,"Clearance, 2 min/60 min ratio for % ID/g values",Blood,2.28
same,"Clearance, 2 min/30 min ratio for % ID/g values",Cerebellum,4.37
same,"Clearance, 2 min/60 min ratio for % ID/g values",Cerebellum,8.8 and 8.81
same,"Clearance, 2 min/30 min ratio for % ID/g values",Cerebrum total,2.54
same,"Clearance, 2 min/60 min ratio for % ID/g values",Cerebrum total,4.34
same,"Clearance, 2 min/30 min ratio for % ID/g values",Cortex,3.81
same,"Clearance, 2 min/60 min ratio for % ID/g values",Cortex,7.19
same,"Clearance, 2 min/30 min ratio for % ID/g values",Hippocampus,2.54
same,"Clearance, 2 min/60 min ratio for % ID/g values",Hippocampus,4.33
same,"Clearance, 2 min/30 min ratio for % ID/g values",Rest of cerebrum,2.54
same,"Clearance, 2 min/60 min ratio for % ID/g values",Rest of cerebrum,4.53
same,"Clearance, 2 min/30 min ratio for % ID/g values",Striatum,0.97
same,"Clearance, 2 min/60 min ratio for % ID/g values",Striatum,1.6 and 1.62
same,% ID present in the carcass,at all time points examined,~26 % ID

# — patent US20110305637A1, “RADIOLABELLED PDE10 LIGANDS” (Janssen Pharmaceutica N.V., priority 2009, published 2011)
